Reference: PubChem BioAssay AID330 (DTP/NCI, 2004)
“And” between values parts separate entries of the source, which are not always exact repeats. Identical values can stand only once. Inconclusive results and toxic doses are left out.

Tested on: P388 leukemia ip, CD2F1 mice, survival T/C
Test: NCI In Vivo Anticancer Drug Screen. Data for tumor model P388 Leukemia (intraperitoneal) in CD2F1 (CDF1) mice
Details: endpoint: median survival time, higher = longer survival
Outline: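 Mice carrying the transplanted tumor received test compound or vehicle. Survival was recorded in each group, and the value is the treated-group measurement divided by that of the vehicle-treated control group.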

[1] = dose: 50.0 mg/kg/injection, schedule: Q01DX009 (ip), vehicle: Klucel (hydroxypropylcellulose) (HPC)
[2] = dose: 100.0 mg/kg/injection, schedule: Q01DX009 (ip), vehicle: Klucel (hydroxypropylcellulose) (HPC)
[3] = dose: 100.0 mg/kg/injection, schedule: Q01DX001 (ip), vehicle: saline with Tween-80
[4] = dose: 200.0 mg/kg/injection, schedule: Q01DX001 (ip), vehicle: saline with Tween-80
[5] = dose: 50.0 mg/kg/injection, schedule: Q01DX005 (ip), vehicle: saline with Tween-80
[6] = dose: 200.0 mg/kg/injection, schedule: Q01DX005 (ip), vehicle: saline with Tween-80
[7] = dose: 100.0 mg/kg/injection, schedule: Q01DX009 (ip), vehicle: saline with Tween-80
[8] = dose: 100.0 mg/kg/injection, schedule: Q01DX005 (ip), vehicle: saline with Tween-80
[9] = dose: 50.0 mg/kg/injection, schedule: Q01DX009 (ip), vehicle: saline with Tween-80

For `CC(=O)c1cc([N+](=O)[O-])c(N)s1`, which T/C (dose: 12.5 mg/kg/injection, schedule: Q01DX009 (ip), vehicle: Klucel (hydroxypropylcellulose) (HPC)) is on record?
The T/C was 111 % of control.

What about the T/C (dose: 25.0 mg/kg/injection, schedule: Q01DX009 (ip), vehicle: Klucel (hydroxypropylcellulose) (HPC)) of the same compound?
Its T/C is 111 % of control.

And the T/C [1]?
Its T/C is 95 % of control.

What about the T/C [2] of the same compound?
Its T/C is 107 % of control.

With `COc1ccc2c(c1)[C@]13CCN(C)[C@H](C2)[C@@H]1CCC1(C3)OCCO1` as the compound, how does the T/C [3] read?
Its T/C is 104 % of control.

And the T/C [4]?
Its T/C is 106 % of control.

`NC(=S)c1cccc(/C=N/Nc2ccccc2)n1` was tested. Which T/C (dose: 100.0 mg/kg/injection, schedule: Q04DX003 (ip), vehicle: Klucel (hydroxypropylcellulose) (HPC)) did it give?
Its T/C is 101 % of control.

What about the T/C (dose: 200.0 mg/kg/injection, schedule: Q04DX003 (ip), vehicle: Klucel (hydroxypropylcellulose) (HPC)) of the same compound?
The T/C was 99 % of control.

What about the T/C (dose: 400.0 mg/kg/injection, schedule: Q04DX003 (ip), vehicle: Klucel (hydroxypropylcellulose) (HPC)) of the same compound?
Its T/C is 97 % of control.

For `CCCCCCCCCCCC[N+]1([O-])CCOCC1`, which T/C (dose: 0.75 mg/kg/injection, schedule: Q01DX009 (ip), vehicle: saline with Tween-80) is on record?
Its T/C is 93 % of control.

What about the T/C (dose: 1.5 mg/kg/injection, schedule: Q01DX009 (ip), vehicle: saline with Tween-80) of the same compound?
The T/C was 91 % of control.

What about the T/C (dose: 3.0 mg/kg/injection, schedule: Q01DX009 (ip), vehicle: saline with Tween-80) of the same compound?
Its T/C is 93 % of control.

And the T/C (dose: 12.5 mg/kg/injection, schedule: Q01DX009 (ip), vehicle: saline)?
The T/C was 91 % of control.

What about the T/C (dose: 25.0 mg/kg/injection, schedule: Q01DX009 (ip), vehicle: saline) of the same compound?
Its T/C is 101 % of control and 94 % of control.

What about the T/C (dose: 50.0 mg/kg/injection, schedule: Q01DX009 (ip), vehicle: saline) of the same compound?
Its T/C is 99 % of control and 97 % of control.

Which T/C (dose: 60.0 mg/kg/injection, schedule: Q01DX005 (ip), vehicle: Klucel (hydroxypropylcellulose) (HPC)) does the source give for `N=C(N)c1ccc(OCCCCOc2ccc(N)cc2)cc1` here?
The T/C was 97 % of control.

What about the T/C (dose: 120.0 mg/kg/injection, schedule: Q01DX005 (ip), vehicle: Klucel (hydroxypropylcellulose) (HPC)) of the same compound?
Its T/C is 101 % of control.

How did the T/C [5] turn out when `O=C(CNC1=NCCN1)Nc1ccc(NC(=O)c2ccc(C(=O)Nc3ccc(NC(=O)CNC4=NCCN4)cc3)cc2)cc1` was run?
Its T/C is 118 % of control and 124 % of control.

And the T/C [6]?
The T/C was 189 % of control.

And the T/C (dose: 400.0 mg/kg/injection, schedule: Q01DX005 (ip), vehicle: saline with Tween-80)?
The T/C was 96 % of control.

What does the source list for `Cc1c(C)c(C[P+](CCP(c2ccccc2)c2ccccc2)(c2ccccc2)c2ccccc2)c(C)c(C)c1C[P+](CCP(c1ccccc1)c1ccccc1)(c1ccccc1)c1ccccc1`?
T/C (dose: 3.12 mg/kg/injection, schedule: Q04DX002 (ip), vehicle: saline with Tween-80): 100 % of control; T/C (dose: 6.25 mg/kg/injection, schedule: Q04DX002 (ip), vehicle: saline with Tween-80): 102 % of control; T/C (dose: 12.5 mg/kg/injection, schedule: Q04DX002 (ip), vehicle: saline with Tween-80): 100 % of control and 101 % of control

Which T/C (dose: 100.0 mg/kg/injection, schedule: Q01DX001 (ip), vehicle: saline) does the source give for `COc1cc(C/C(=N/N=C(N)N)C(=O)O)cc(OC)c1OC` here?
Its T/C is 99 % of control.

And the T/C (dose: 200.0 mg/kg/injection, schedule: Q01DX001 (ip), vehicle: saline)?
The T/C was 100 % of control.

And the T/C (dose: 400.0 mg/kg/injection, schedule: Q01DX001 (ip), vehicle: saline)?
The T/C was 100 % of control.

What does the source list for `COC(=O)c1cccc(COc2ccc([N+](=O)[O-])cc2Cl)c1`?
T/C [7]: 100 % of control; T/C (dose: 200.0 mg/kg/injection, schedule: Q01DX009 (ip), vehicle: saline with Tween-80): 100 % of control; T/C (dose: 400.0 mg/kg/injection, schedule: Q01DX009 (ip), vehicle: saline with Tween-80): 110 % of control

What does the source list for `O=C(c1cccc2c1Oc1ccccc1S2)c1cccc2c1Oc1ccccc1S2`?
T/C [5]: 113 % of control; T/C [8]: 103 % of control; T/C [6]: 103 % of control

What does the source list for `N=c1c2c(ncn1CCc1ccccc1)CCN(Cc1ccccc1)C2`?
T/C (dose: 20.0 mg/kg/injection, schedule: Q01DX009 (ip), vehicle: saline with Tween-80): 91 % of control; T/C (dose: 40.0 mg/kg/injection, schedule: Q01DX009 (ip), vehicle: saline with Tween-80): 94 % of control

What does the source list for `CC(=O)OCC1=C(COC(C)=O)C(=O)c2cc3ccccc3cc2C1=O`?
T/C (dose: 25.0 mg/kg/injection, schedule: Q01DX001 (ip), vehicle: saline with Tween-80): 92 % of control; T/C (dose: 50.0 mg/kg/injection, schedule: Q01DX001 (ip), vehicle: saline with Tween-80): 92 % of control; T/C [3]: 94 % of control; T/C [4]: 101 % of control

Which T/C (dose: 100.0 mg/kg/injection, schedule: Q01DX001 (ip), vehicle: Klucel (hydroxypropylcellulose) (HPC)) does the source give for `CCNC(=O)OCc1c(Cl)nc2sccn12` here?
The T/C was 106 % of control.

And the T/C (dose: 200.0 mg/kg/injection, schedule: Q01DX001 (ip), vehicle: Klucel (hydroxypropylcellulose) (HPC))?
Its T/C is 107 % of control.

What about the T/C (dose: 400.0 mg/kg/injection, schedule: Q01DX001 (ip), vehicle: Klucel (hydroxypropylcellulose) (HPC)) of the same compound?
Its T/C is 100 % of control.

For `Cc1ccc(S(=O)(=O)Nc2ccccc2N(CCNCCOS(=O)(=O)c2ccc(C)cc2)S(=O)(=O)c2ccc(C)cc2)cc1`, which T/C (dose: 100.0 mg/kg/injection, schedule: Q04DX002 (ip), vehicle: saline with Tween-80) is on record?
Its T/C is 96 % of control.

What about the T/C (dose: 200.0 mg/kg/injection, schedule: Q04DX002 (ip), vehicle: saline with Tween-80) of the same compound?
Its T/C is 98 % of control.

And the T/C (dose: 400.0 mg/kg/injection, schedule: Q04DX002 (ip), vehicle: saline with Tween-80)?
The T/C was 91 % of control.

Which T/C (dose: 12.5 mg/kg/injection, schedule: Q01DX009 (ip), vehicle: saline with Tween-80) does the source give for `CCC(C(=O)NNC(=O)c1cc(OC)c(OC)c(OC)c1)c1ccccc1` (centres undefined) here?
Its T/C is 105 % of control.

And the T/C (dose: 25.0 mg/kg/injection, schedule: Q01DX009 (ip), vehicle: saline with Tween-80)?
Its T/C is 97 % of control.

What about the T/C [9] of the same compound?
The T/C was 98 % of control.

What about the T/C [7] of the same compound?
The T/C was 98 % of control.

What does the source list for `C/C=C1\C[N+]2(C)C3CC1C(C[O-])(C(=O)OC)C2Cc1c3[nH]c2ccccc12` (centres undefined)?
T/C (dose: 0.75 mg/kg/injection, schedule: Q01DX005 (ip), vehicle: Klucel (hydroxypropylcellulose) (HPC)): 97 % of control; T/C (dose: 1.5 mg/kg/injection, schedule: Q01DX005 (ip), vehicle: Klucel (hydroxypropylcellulose) (HPC)): 91 % of control; T/C (dose: 3.0 mg/kg/injection, schedule: Q01DX005 (ip), vehicle: Klucel (hydroxypropylcellulose) (HPC)): 96 % of control; T/C (dose: 6.0 mg/kg/injection, schedule: Q01DX005 (ip), vehicle: Klucel (hydroxypropylcellulose) (HPC)): 92 % of control

Which T/C (dose: 100.0 mg/kg/injection, schedule: Q04DX002 (ip), vehicle: saline) does the source give for `NC(c1cccc([N+](=O)[O-])c1)S(=O)(=O)O` (centres undefined) here?
Its T/C is 99 % of control.

What about the T/C (dose: 200.0 mg/kg/injection, schedule: Q04DX002 (ip), vehicle: saline) of the same compound?
Its T/C is 105 % of control.

And the T/C (dose: 400.0 mg/kg/injection, schedule: Q04DX002 (ip), vehicle: saline)?
Its T/C is 105 % of control.

How did the T/C (dose: 7.5 mg/kg/injection, schedule: Q01DX005 (ip), vehicle: saline + Tween-80 + alcohol) turn out when `CC1=CC[C@@H]2[C@@H](CC[C@@]2(C)O)C(C)(C)[C@H]1CC[C@@H]1[C@@]2(C)CCC(=O)C(C)(C)O[C@@H]2CC[C@]1(C)O` was run?
Its T/C is 92 % of control.

What about the T/C (dose: 15.0 mg/kg/injection, schedule: Q01DX005 (ip), vehicle: saline + Tween-80 + alcohol) of the same compound?
Its T/C is 98 % of control.

And the T/C (dose: 30.0 mg/kg/injection, schedule: Q01DX005 (ip), vehicle: saline + Tween-80 + alcohol)?
Its T/C is 97 % of control.

And the T/C (dose: 60.0 mg/kg/injection, schedule: Q01DX005 (ip), vehicle: saline + Tween-80 + alcohol)?
Its T/C is 103 % of control.

What does the source list for `C=NN(C)C`?
T/C (dose: 2.39 mg/kg/injection, schedule: Q01DX009 (ip), vehicle: Klucel (hydroxypropylcellulose) (HPC)): 95 % of control; T/C (dose: 4.75 mg/kg/injection, schedule: Q01DX009 (ip), vehicle: Klucel (hydroxypropylcellulose) (HPC)): 102 % of control; T/C (dose: 9.5 mg/kg/injection, schedule: Q01DX009 (ip), vehicle: Klucel (hydroxypropylcellulose) (HPC)): 103 % of control; T/C (dose: 19.0 mg/kg/injection, schedule: Q01DX009 (ip), vehicle: Klucel (hydroxypropylcellulose) (HPC)): 105 % of control

For `CCCCCCCCCCCC1C(C#N)C(=O)NC(=O)C1C#N` (centres undefined), which T/C [1] is on record?
The T/C was 103 % of control.

And the T/C [2]?
Its T/C is 94 % of control.

What about the T/C (dose: 200.0 mg/kg/injection, schedule: Q01DX009 (ip), vehicle: Klucel (hydroxypropylcellulose) (HPC)) of the same compound?
The T/C was 100 % of control.

What does the source list for `Cc1cc(Cl)nc2nc(Cl)ccc12`?
T/C [5]: 101 % of control; T/C [8]: 93 % of control

What does the source list for `NC(CCl)=NC1CCCCC1`?
T/C (dose: 10.0 mg/kg/injection, schedule: Q04DX003 (ip), vehicle: saline): 109 % of control; T/C (dose: 15.0 mg/kg/injection, schedule: Q04DX003 (ip), vehicle: saline): 107 % of control; T/C (dose: 22.0 mg/kg/injection, schedule: Q04DX003 (ip), vehicle: saline): 111 % of control; T/C (dose: 33.0 mg/kg/injection, schedule: Q04DX003 (ip), vehicle: saline): 116 % of control

`CN1CC=Nc2c1nc(N)[nH]c2=O` was tested. Which T/C [9] did it give?
The T/C was 98 % of control.

And the T/C [7]?
Its T/C is 95 % of control.
